Measurements: ChEMBL document CHEMBL1201862, “PubChem BioAssay data set” (2004)
Activity calls are given as the source filed them.

Legend:
[1] = toxicity to human HepG2 hepatoma cells – cell-based, plate reader, dry powder samples, cytotoxicity control, dose response (AID 1159569); type: functional;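 note: inhibitor potency with signal falling toward the positive control level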
[2] = growth inhibition of PfATP4-mutant resistant parasites – NITD609-resistant line, SYBR Green, dry powder, dose response (AID 1159571); type: functional, cell-based;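 note: parasites synchronized at ring stage by sorbitol before testing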
[3] = Dd2 malaria parasite growth inhibition potency – SYBR Green, dry powder samples, dose response (AID 1159566); type: functional, cell-based;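 note: potency for growth inhibition with lower SYBR green DNA signal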
[4] = P. falciparum Dd2 growth inhibitors, dose response, SYBR Green, cherry-picked samples (AID 1159567); type: functional, cell-based
[5] = growth inhibition of yeast DHODH-expressing 3D7 parasites – SYBR Green, dry powder samples, dose response (AID 1159570); type: functional, cell-based;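 note: parasite growth measured after 72 hours of compound exposure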
[6] = target: T1, Sentrin-specific protease 1 (Homo sapiens, UniProt Q9P0U3); experiment: Dose response confirmation of small molecule inhibitors of the catalytic domain of the SUMO protease, SENP1 in a FRET assay.; type: functional; details: read-out: IC50_Mean
T1 sequence (Q9P0U3 whole entry): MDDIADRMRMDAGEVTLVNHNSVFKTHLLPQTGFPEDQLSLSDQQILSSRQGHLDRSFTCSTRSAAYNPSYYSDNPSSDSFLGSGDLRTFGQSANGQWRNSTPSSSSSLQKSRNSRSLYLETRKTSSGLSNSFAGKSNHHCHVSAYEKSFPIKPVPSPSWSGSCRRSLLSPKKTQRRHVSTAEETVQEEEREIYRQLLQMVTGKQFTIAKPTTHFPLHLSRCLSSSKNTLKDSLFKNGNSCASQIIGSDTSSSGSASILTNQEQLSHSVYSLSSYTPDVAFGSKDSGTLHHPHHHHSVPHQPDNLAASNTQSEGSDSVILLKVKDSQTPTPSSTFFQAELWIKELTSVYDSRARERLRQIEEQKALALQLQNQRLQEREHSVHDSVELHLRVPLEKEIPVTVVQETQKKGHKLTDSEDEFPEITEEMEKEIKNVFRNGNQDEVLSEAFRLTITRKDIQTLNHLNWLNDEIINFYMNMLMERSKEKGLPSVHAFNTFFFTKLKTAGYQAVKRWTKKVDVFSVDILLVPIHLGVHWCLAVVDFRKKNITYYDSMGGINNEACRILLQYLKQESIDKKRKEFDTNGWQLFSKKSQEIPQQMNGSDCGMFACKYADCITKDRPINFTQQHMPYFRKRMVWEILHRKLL

[7] = target: T1, Sentrin-specific protease 1; experiment: SENP1 catalytic domain blockers, concentration series – biochemical, kinetic FRET, dose response (AID 651697); type: functional; details: read-out: IC50_Mean
Beta-lactamase [8] = target: T2, Beta-lactamase (Pseudomonas aeruginosa, UniProt Q79MP6); experiment: inhibition of IMP-1 beta-lactamase activity – biochemical, epi-absorbance, selectivity assay for VIM-2 inhibitor project, dose response (AID 1920)
[9] = target: Protein-tyrosine kinase 2-beta (Homo sapiens, UniProt Q14289);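 note: potency of inhibitors of PYK2 kinase phosphorylation of poly-GT substrate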
Beta-lactamase [10] = target: T2, Beta-lactamase; experiment: […] counterscreen for selective VIM-2 inhibitors: dose response biochemical high throughput screening assay to identify inhibitors of IMP-1 metallo-beta-lactamase.
Beta-lactamase [11] = target: Beta-lactamase (Salmonella choleraesuis (strain SC-B67), UniProt Q5J463); experiment: Epi-absorbance-based counterscreen for selective VIM-2 inhibitors: dose response biochemical high throughput screening assay to identify inhibitors of TEM-1 serine-beta-lactamase.
[12] = HGIII-sPLA2 enzyme inhibition potency – biochemical, QFRET, IC50, dose response (AID 743457);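 note: green fluorescence rise as the enzyme cleaves BODIPY PC-A2 in liposomes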
[13] = reduced cellular PGC1a acetyl-lysine signal – cell-based, cherry-picked samples, dose response (AID 720514); type: functional;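 note: potency may reflect raised or lowered acetylation signal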
cells [14] = type: functional, cell-based; details: HEK-CNG
Galanin receptor type 3 = Galanin receptor type 3 (Homo sapiens, UniProt O60755); experiment: Fluorescence-based cell-based primary high throughput dose response assay to identify antagonists of the Galanin Receptor 3 (GalR3).; type: functional
[15] = system: Streptococcus sp. 'group A'; experiment: Streptococcus pyogenes SK(-)GAS viability under kanamycin – luminescence, BacTiterGlo, confirmation, counter-screen for streptokinase expression inhibitor project, dose response (AID 1900); type: functional, organism-based
[16] = viability loss in THP-1 monocytes – THP-1 cells, cytotoxicity control for Vif-APOBEC3G degradation inhibitor project, dose response (AID 1117359); type: functional; details: THP-1
Streptococcus = experiment: GAS UMAA2166 growth inhibition – luminescence, BacTiterGlo, counter-screen for streptokinase expression inhibitor project, dose response (AID 1915); type: functional, organism-based;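 note: potency for reduction of bacterial viability or growth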
[17] = inhibition of ADAM10 peptide cleavage – biochemical, FRET peptide substrate, recombinant human ADAM10, selectivity assay for ADAM17 exosite inhibitor project, dose response (AID 743259);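 note: ADAM10 enzyme cleaving a FRET peptide substrate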
[18] = target: Disintegrin and metalloproteinase domain-containing protein 17 (Homo sapiens, UniProt P78536); experiment: exosite inhibitors of ADAM17, dose response, biochemical (AID 743260)
Streptokinase A = target: T3, Streptokinase A (Streptococcus pyogenes serotype M1, UniProt P10520); experiment: viability-normalized secreted streptokinase activity reduction – plasminogen activation absorbance, OD405, dose response (AID 1914); type: functional, Streptococcus pyogenes M1 GAS;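 note: secreted streptokinase activity via plasminogen activation per viability signal from cell pellet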
T3 sequence (P10520 whole entry): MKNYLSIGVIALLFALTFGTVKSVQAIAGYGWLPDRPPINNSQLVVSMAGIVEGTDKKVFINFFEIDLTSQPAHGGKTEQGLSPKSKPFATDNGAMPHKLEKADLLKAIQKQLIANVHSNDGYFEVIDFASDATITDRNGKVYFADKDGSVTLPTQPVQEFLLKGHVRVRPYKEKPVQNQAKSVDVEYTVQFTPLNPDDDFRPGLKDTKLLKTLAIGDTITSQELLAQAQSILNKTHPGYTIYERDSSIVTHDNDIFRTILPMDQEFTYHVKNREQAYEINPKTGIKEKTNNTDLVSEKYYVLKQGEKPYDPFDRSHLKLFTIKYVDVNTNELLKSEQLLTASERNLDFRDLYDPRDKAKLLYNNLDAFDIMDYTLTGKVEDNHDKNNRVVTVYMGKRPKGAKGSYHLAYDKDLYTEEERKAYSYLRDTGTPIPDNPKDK

[19] = target: T4, Trace amine-associated receptor 1 (Homo sapiens, UniProt Q96RJ0); experiment: Fluorescence-based cell-based high throughput dose response assay to identify agonists of the human trace amine associated receptor 1 (TAAR1).; type: functional
T4 sequence (Q96RJ0 whole entry): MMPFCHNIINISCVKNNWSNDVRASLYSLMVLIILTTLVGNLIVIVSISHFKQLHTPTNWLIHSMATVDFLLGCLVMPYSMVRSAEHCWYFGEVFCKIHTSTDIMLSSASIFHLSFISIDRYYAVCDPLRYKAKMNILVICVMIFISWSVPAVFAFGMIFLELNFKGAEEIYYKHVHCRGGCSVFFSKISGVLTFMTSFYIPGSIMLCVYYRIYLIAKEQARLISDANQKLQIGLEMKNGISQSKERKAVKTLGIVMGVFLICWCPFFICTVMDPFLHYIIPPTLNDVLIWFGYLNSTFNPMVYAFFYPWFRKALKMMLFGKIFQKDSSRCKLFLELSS

[20] = target: T4, Trace amine-associated receptor 1; experiment: Counterscreen for agonists of the human trace amine associated receptor 1 (hTAAR1): Fluorescence-based cell-based high throughput dose response assay to identify hTAAR1 agonist that also desensitize TAAR1 receptor response.; type: functional
cells [21] = type: functional, cell-based
cells [22] = type: functional, cell-based; remark: listed apart in the source
[23] = target: Dual specificity tyrosine-phosphorylation-regulated kinase 1A (Rattus norvegicus, UniProt Q63470); type: biochemical, Homo sapiens
[24] = luciferase reporter signal suppression in cells – H4 neuroglioma cells, luminescence, dose response (AID 1990); type: functional, cell-based
[25] = Luminescence Cell-Based Dose Response HTS to Identify Inhibitors of 5'UTR Stem-Loop Driven Prion Protein mRNA Translation in H4 Neuroglioblastoma Cells. [Related pubchem assays: 1827 (Project Summary), 1813 (Primary HTS)]; type: functional
[26] = alpha-synuclein stem-loop luciferase translation blockers – H4 neuroglioma cells, luminescence, confirmation (AID 1988); type: functional, cell-based
Cytochrome P450 2D6 = Cytochrome P450 2D6 (Homo sapiens, UniProt P10635);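 note: CYP2D6 member of a cytochrome P450 panel assay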
[27] = HEK-293T viability loss after treatment – luminescence, T-cell screen hits, cytotoxicity control for TCR NF-kB inhibitor project, dose response (AID 489026); type: functional, cell-based;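 note: cells exposed to compound about 14 hours before the viability readout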
[28] = target: COUP transcription factor 2 (Homo sapiens, UniProt P24468); experiment: Luminescence-based cell-based high throughput dose response assay to identify inhibitors of COUP-TFII (NR2F2).; type: functional;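 note: HEK293 cells transiently cotransfected with COUP-TFII expression vector and reporter; luciferase reporter luminescence driven by COUP-TFII from the pX2-168 reporter plasmid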
[29] = target: T5, Microphthalmia-associated transcription factor (Homo sapiens, UniProt O75030); experiment: reducers of TRPM1 reporter luminescence, concentration series – cell-based, SK-MEL-5, cherry-picked, set 3, MITF inhibitor project, dose response (AID 493073); type: functional;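 note: SK-MEL-5 melanoma cells with luciferase driven by the MITF target TRPM1 promoter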
T5 sequence (O75030 whole entry): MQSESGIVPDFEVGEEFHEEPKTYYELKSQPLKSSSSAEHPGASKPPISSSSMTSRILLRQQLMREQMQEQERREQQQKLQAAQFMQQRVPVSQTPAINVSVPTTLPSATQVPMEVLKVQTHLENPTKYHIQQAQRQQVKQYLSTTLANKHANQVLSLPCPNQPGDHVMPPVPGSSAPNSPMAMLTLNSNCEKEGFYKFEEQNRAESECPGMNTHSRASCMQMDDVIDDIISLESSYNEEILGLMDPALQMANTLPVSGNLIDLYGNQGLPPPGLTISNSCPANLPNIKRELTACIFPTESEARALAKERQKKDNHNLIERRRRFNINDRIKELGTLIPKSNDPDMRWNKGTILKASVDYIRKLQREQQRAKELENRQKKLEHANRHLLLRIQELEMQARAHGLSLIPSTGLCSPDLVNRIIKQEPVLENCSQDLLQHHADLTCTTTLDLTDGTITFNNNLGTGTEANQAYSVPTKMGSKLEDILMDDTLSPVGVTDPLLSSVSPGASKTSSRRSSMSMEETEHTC

[30] = target: G-protein coupled receptor 35 (Homo sapiens, UniProt Q9HC97); experiment: inhibition of zaprinast-stimulated GPR35 beta-arrestin translocation – imaging, U2OS, beta-arrestin-GFP, zaprinast agonist, primary screen (AID 2058); type: functional;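 note: antagonist potency meaning inhibition of agonist-induced arrestin redistribution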
A-375 = experiment: proliferation inhibition in MITF-low A375 cells – cell-based, cherry-pick samples, set 2, counter-screen for MITF modulator project, dose response (AID 540335); type: functional; details: Homo sapiens
[31] = target: NAD-dependent protein deacylase sirtuin-5, mitochondrial (Homo sapiens, UniProt Q9NXA8); experiment: sirtuin-5 deacylation blockers, concentration series – biochemical, fluorescence imaging, cherry-pick, set 5, dose response (AID 720591);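 note: desuccinylation of succinyl peptide AMC substrate read as fluorescence after trypsin release; potency of inhibitors that lower fluorescence and may act on trypsin instead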
Chain of NAD-dependent protein deacylase sirtuin-5, mitochondrial (Q9NXA8 whole entry): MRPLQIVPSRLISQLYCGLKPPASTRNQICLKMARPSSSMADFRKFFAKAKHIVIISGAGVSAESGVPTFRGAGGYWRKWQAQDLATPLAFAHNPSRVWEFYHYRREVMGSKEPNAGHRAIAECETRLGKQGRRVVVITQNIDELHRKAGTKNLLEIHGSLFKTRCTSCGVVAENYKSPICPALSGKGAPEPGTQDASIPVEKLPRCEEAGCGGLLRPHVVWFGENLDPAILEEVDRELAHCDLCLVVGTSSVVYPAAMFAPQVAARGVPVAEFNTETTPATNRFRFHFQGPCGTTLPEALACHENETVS

T2 sequence (Q79MP6 whole entry): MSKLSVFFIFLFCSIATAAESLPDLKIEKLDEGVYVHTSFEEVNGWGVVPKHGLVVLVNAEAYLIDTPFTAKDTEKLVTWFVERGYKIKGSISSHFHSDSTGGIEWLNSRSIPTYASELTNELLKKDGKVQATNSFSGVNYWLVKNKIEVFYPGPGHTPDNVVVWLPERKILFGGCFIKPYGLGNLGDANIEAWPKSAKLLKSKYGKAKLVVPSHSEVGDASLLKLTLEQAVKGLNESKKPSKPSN
Chain of COUP transcription factor 2 (P24468 whole entry): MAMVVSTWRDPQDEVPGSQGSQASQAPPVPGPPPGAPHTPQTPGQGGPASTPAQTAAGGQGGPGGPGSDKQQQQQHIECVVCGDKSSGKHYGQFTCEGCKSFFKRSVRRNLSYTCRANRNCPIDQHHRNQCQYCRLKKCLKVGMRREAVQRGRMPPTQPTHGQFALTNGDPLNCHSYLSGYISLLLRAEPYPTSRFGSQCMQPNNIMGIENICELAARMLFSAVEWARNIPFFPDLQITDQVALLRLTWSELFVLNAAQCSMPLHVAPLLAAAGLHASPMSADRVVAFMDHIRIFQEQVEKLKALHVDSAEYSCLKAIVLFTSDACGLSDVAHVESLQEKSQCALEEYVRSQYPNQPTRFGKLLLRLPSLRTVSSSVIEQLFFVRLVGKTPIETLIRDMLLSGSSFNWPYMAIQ
Chain of Disintegrin and metalloproteinase domain-containing protein 17 (P78536 whole entry, the tested form may be a part): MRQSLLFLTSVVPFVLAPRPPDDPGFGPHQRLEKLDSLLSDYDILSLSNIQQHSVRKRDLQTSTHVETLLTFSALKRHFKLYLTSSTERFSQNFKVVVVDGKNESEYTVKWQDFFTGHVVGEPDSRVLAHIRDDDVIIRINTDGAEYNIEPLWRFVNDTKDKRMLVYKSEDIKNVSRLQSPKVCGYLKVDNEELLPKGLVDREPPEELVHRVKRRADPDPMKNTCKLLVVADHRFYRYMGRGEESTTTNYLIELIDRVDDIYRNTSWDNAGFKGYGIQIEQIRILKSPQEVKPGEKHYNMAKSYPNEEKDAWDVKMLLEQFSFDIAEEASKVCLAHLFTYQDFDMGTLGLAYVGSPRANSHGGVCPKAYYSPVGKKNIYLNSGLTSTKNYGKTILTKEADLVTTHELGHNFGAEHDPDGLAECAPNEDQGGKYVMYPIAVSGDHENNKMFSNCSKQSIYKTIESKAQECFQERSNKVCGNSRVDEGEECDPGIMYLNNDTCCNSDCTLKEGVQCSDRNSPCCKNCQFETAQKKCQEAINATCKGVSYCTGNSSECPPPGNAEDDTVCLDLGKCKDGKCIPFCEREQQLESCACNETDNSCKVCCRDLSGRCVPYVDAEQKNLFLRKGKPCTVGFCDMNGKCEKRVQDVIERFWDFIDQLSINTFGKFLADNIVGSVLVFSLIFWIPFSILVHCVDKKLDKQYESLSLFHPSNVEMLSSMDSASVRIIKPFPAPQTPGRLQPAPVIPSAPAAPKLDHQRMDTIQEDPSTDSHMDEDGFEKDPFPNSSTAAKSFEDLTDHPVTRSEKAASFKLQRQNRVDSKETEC
Chain of Galanin receptor type 3 (O60755 whole entry): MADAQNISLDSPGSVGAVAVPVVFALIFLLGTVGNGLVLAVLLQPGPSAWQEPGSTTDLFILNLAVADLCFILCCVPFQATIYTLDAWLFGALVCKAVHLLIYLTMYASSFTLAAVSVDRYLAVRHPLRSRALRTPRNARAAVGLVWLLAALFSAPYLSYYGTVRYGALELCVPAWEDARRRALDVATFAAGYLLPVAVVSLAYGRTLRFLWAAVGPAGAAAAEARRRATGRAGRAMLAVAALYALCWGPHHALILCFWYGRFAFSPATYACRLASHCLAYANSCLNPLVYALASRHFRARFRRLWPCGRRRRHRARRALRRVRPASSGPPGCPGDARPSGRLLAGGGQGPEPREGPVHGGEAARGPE
Chain of Beta-lactamase (Salmonella choleraesuis (strain SC-B67), UniProt Q5J463) (Q5J463 whole entry): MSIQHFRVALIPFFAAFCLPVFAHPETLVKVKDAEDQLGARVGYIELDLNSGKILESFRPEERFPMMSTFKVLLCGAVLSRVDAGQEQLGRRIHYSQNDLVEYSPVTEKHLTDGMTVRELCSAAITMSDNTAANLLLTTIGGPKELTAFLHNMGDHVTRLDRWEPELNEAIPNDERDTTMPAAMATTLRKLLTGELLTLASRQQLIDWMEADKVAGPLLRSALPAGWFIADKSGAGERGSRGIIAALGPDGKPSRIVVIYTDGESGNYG
Chain of G-protein coupled receptor 35 (Q9HC97 whole entry): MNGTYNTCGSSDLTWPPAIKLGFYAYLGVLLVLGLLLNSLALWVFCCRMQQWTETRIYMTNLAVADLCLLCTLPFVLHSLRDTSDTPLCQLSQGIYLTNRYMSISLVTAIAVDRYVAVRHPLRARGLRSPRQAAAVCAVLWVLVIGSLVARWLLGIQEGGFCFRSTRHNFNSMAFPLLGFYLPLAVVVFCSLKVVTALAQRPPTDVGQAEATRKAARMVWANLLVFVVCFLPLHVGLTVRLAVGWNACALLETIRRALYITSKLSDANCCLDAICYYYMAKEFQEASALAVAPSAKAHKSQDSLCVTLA
Chain of Protein-tyrosine kinase 2-beta (Q14289 whole entry): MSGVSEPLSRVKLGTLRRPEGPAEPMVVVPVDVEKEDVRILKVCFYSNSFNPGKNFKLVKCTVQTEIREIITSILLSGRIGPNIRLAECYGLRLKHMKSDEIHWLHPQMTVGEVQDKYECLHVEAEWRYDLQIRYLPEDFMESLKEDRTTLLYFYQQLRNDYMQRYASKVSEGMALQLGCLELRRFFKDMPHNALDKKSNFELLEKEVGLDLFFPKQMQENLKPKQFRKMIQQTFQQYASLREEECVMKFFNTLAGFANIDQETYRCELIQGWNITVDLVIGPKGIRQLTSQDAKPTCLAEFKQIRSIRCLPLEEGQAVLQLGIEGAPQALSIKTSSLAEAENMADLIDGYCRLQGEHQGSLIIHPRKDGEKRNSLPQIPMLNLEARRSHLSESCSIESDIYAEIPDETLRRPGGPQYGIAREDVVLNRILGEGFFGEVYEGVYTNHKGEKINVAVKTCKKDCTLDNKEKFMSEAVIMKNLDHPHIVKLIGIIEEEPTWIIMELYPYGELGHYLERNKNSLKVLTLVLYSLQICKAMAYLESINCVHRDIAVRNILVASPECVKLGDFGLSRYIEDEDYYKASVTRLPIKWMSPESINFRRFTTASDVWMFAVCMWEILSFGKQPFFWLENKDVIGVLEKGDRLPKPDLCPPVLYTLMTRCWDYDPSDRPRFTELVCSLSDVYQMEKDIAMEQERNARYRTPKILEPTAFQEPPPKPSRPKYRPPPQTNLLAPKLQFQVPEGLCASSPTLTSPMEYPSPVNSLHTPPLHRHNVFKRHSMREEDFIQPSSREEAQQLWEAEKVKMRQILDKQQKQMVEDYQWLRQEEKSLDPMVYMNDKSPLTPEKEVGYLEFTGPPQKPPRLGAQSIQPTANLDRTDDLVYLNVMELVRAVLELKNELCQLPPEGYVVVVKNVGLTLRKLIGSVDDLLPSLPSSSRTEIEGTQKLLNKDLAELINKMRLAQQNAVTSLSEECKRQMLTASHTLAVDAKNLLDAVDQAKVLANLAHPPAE
Chain of Cytochrome P450 2D6 (P10635 whole entry): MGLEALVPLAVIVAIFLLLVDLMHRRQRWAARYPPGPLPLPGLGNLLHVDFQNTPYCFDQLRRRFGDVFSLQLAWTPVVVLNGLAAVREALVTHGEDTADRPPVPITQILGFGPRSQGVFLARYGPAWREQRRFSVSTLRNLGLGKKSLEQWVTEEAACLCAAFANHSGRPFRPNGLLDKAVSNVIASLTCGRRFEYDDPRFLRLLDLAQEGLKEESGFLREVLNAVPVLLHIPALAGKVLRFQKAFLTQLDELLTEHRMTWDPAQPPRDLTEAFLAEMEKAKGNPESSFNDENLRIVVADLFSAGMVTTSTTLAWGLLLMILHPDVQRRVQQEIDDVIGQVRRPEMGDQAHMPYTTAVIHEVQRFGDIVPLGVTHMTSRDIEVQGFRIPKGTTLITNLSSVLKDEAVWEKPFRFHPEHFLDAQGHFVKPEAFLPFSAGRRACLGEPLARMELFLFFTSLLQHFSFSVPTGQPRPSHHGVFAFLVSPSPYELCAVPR

O=C(c1ccc(F)cc1)N1CC(=O)N2[C@H](CO)[C@H](c3ccc(-c4cccnc4)cc3)[C@H]2C1
AC50 [1]: > 100 µM (inactive)
AC50 [2]: 1.27 µM (active)
AC50 [3]: 0.964 µM (active)
AC50 [4]: 0.821 µM (active)
AC50 [5]: 1.2 µM (active)

CCC(=NN=C(CC)c1ccccc1O)c1ccccc1O
IC50 [6]: 10.4 µM (active)
IC50 [7]: 8.19 µM (active)

O=P(O)(O)c1ccccc1OCCCCCOc1ccccc1P(=O)(O)O
IC50 (Beta-lactamase [8]): > 59.6 µM (inactive)
IC50 [9]: 2.23 µM (active)
IC50 (Beta-lactamase [10]): > 59.6 µM (inactive)
IC50 (Beta-lactamase [11]): > 59.6 µM (inactive)

CC(C)Cc1c(C#N)c(S)nc2c1CCCC2
IC50 [12]: > 122 µM (inactive)

CO[C@@H]1CN(C)C(=O)c2cc(NC(C)=O)ccc2OC[C@@H](C)N(Cc2ccccc2C(=O)O)C[C@@H]1C
AC50 [13]: 23.6 µM (active)

COc1cccc2[nH]c3c(N4CCC(C)CC4)ncnc3c12
EC50 (cells [14]): > 29.9 µM (inactive)
IC50 (Galanin receptor type 3): 0.379 µM (active)

COc1ccc(C2CC(O)(c3ccccc3)Oc3c(C)ccc(C)c32)cc1 (stereo unspecified)
EC50 [15]: > 150 µM (not active)
CC50 [16]: 28.5 µM (active)
EC50 (Streptococcus): > 150 µM (not active)
IC50 [17]: 12.7 µM (inactive)
IC50 [18]: > 69.5 µM (inactive)
EC50 (Streptokinase A): > 150 µM (not active)

O=C(O)/C=C/C(=O)NCCc1ccccc1
EC50 [19]: 0.153 µM (active)
IC50 [20]: 1.19 µM (active)
IC50 (cells [21]): > 29.9 µM (inactive)
EC50 (cells [22]): > 29.9 µM (inactive)

COc1cccc(CN(C)C[C@H]2OCc3ccccc3-c3c(n(C)c4ccccc34)C(=O)N([C@H](C)CO)C[C@@H]2C)c1
AC50 [1]: 20.6 µM (active)
AC50 [2]: 3.55 µM (active)
AC50 [3]: 2.87 µM (active)
AC50 [4]: 2.76 µM (active)
AC50 [5]: 3.29 µM (active)

COc1ccccc1N=C(S)NNC(=O)c1nn(C)cc1Cl
IC50 [12]: > 122 µM (inactive)

O=C1NC(=S)SC1=Cc1cc(Br)ccc1O
IC50 [6]: 2.57 µM (active)
AC50 [23]: 8.94 µM (active)
IC50 [7]: 14.7 µM (active)

CCCCC[C@@H](/C=C/C1C(=O)C=C[C@H]1C/C=C\CCCC(=O)O)OC(C)=O (stereo partly specified)
EC50 (cells [14]): > 29.9 µM (inactive)
IC50 (Galanin receptor type 3): 1.09 µM (active)

COc1ccccc1-c1n[nH]c(=S)n1Cc1ccco1
IC50 (Beta-lactamase [8]): > 59.6 µM (inactive)
IC50 (Beta-lactamase [10]): > 59.6 µM (inactive)
IC50 (Beta-lactamase [11]): > 59.6 µM (inactive)

O=c1cc(Nc2ccc3c(c2)OCO3)[nH]c(=O)n1-c1ccc(Br)cc1
EC50 [19]: 5.11 µM (active)
IC50 [20]: 21.9 µM (inactive)
IC50 (cells [21]): > 29.9 µM (inactive)
EC50 (cells [22]): > 29.9 µM (inactive)

CC(Oc1ccc(Cl)cc1)c1ccnn1S(=O)(=O)c1ccccc1 (stereo unspecified)
EC50 [24]: 17.4 µM (active)
IC50 [17]: 66.4 µM (inactive)
IC50 [18]: > 69.5 µM (inactive)
EC50 [25]: > 120 µM (not active)
EC50 [26]: > 120 µM (not active)
AC50 (Cytochrome P450 2D6): 14.1 µM (inconclusive)

CC1=CC(=Cc2sc3ccccc3[n+]2C)C=C(C)N1CC1CCCO1 (stereo unspecified)
IC50 [27]: > 80 µM (inactive)
IC50 [28]: 4.97 µM (active)
AC50 [29]: 1.82 µM (active)
IC50 [30]: 1.44 µM (active)
AC50 (A-375): 24.4 µM (active)

C=CCSc1nnc(NC(=O)c2cn(CC)c3nc(C)ccc3c2=O)s1
AC50 [31]: > 30 µM (inactive)

CC1Cc2cc(-c3csc(NC(=O)Cc4ccccc4)n3)ccc2N1S(C)(=O)=O (stereo unspecified)
IC50 [28]: 6.11 µM (active)
